In patent US20170058314A1, “NOVEL METHODOLOGY FOR IDENTIFYING ANTI-PERSISTER ACTIVITY AND ANTIMICROBIAL SUSCEPTIBILITY FOR BORRELIA BURGDORFERI AND OTHER BACTERIA” (priority 2014, published 2017):
Marks after values point to notes of the source that are not given here.

Experiments:
[1] = test system: round body form of B. burgdorferi; assay: SYBR Green I/PI assay on amoxicillin-induced round body form; details: 7 days; for Live cell %, round body form: 10 μg/mL drugs or combinations
[2] = test system: log phase and stationary phase B. burgdorferi culture; assay: Antibiotic exposure assay, SYBR Green I/PI (drugs alone and combinations); details: for Live cell %, ten day old stationary phase culture (in brackets): 10 μg/mL drugs or combinations; for viability at 10 µg/mL: Borreliella burgdorferi, 168 h, read-out: Live Cell % (residual viable B. burgdorferi), ten-day-old stationary phase culture enriched with micro-colonies, 10 μg/mL each drug, 7 days
Protocol: To qualitatively determine the effect of antibiotics, 10 μL of each compound from the pre-diluted plate or pre-diluted stock was added to stationary phase B. burgdorferi culture in the 96-well plate. The final volume per well was adjusted to 100 μL at a concentration of 10 μg/mL for each antibiotic. Plates were sealed and placed in a 33° C. incubator for 7 days. The SYBR Green I/PI viability assay was used to assess the live and dead cells after antibiotic exposure as described (Feng, Wang, Shi, et al., 2014). Briefly, 10 μL of SYBR Green I (10,000×stock, Invitrogen) was mixed with 30 μL propidium iodide (PI, 20 mM) into 1.0 mL of sterile dH2O. Then, 10 μL of staining mixture was added to each well and mixed thoroughly. The plates were incubated at room temperature in the dark for 15 minutes followed by plate reading at excitation wavelength at 485 nm and the fluorescence intensity at 535 nm (green emission) and 635 nm (red emission) in microplate reader (HTS 7000 plus Bio Assay Reader, PerkinElmer Inc., USA). With least-square fitting analysis, the regression equation and regression curve of the relationship between percentage of live bacteria and green/red fluorescence ratios was obtained. The regression equation was used to calculate the percentage of live cells in each well of the 96-well plate.
To qualitatively determine the effect of antibiotics, 10 μL of each compound (final concentration 50 μM) from the pre-diluted plate or pre-diluted stock was added to round body form or stationary phase B. burgdorferi culture in the 96-well plate. The final volume per well was adjusted to 100 μL. Plates were sealed and placed in a 33° C. incubator for 7 days. The SYBR Green I/PI viability assay was used to assess the live and dead cells after antibiotic exposure as described (Feng, Wang, Shi, et al., 2014). Briefly, 10 μL of SYBR Green I (10,000×stock, Invitrogen) was mixed with 30 μL propidium iodide (PI, 20 mM, Sigma-Aldrich) into 1.0 mL of sterile dH2O. Then, 10 μL staining mixture was added to each well and mixed thoroughly. The plates were incubated at room temperature in the dark for 15 minutes followed by plate reading at excitation wavelength at 485 nm and the fluorescence intensity at 535 nm (green emission) and 635 nm (red emission) in microplate reader (HTS 7000 plus Bio Assay Reader, PerkinElmer Inc., USA). With least-square fitting analysis, the regression equation and regression curve of the relationship between percentage of live and dead bacteria as shown in green/red fluorescence ratios was obtained. The regression equation was used to calculate the percentage of live cells in each well of the 96-well plate.
Round body form and ten day old stationary phase (in brackets) B. burgdorferi culture was treated with 10 μg/mL drugs or their combinations for 7 days. Residual viable B. burgdorferi was calculated according to the regression equation and ratio of Green/Red fluorescence obtained by SYBR Green I/PI assay as described (Feng, Wang, Shi, et al., 2014). Direct microscopy counting was employed to rectify the results of the SYBR Green I/PI assay. […] Abbreviation: Dox, doxcycline; CefP, cefoperazone; DAP, daptomycin; CefM, cefmetazole; Scp, sulfachlorpyridazine; Art, artemisinin; Nft, nitrofurantoin.

[3] = test system: stationary phase B. burgdorferi persisters (strain B31); assay: epifluorescence microscope counting after SYBR Green I/PI staining, FDA drug screen
[4] = test system: stationary phase B. burgdorferi persisters (strain B31); assay: SYBR Green I/PI viability assay (plate reader), FDA-approved drug library screen
[5] = test system: S. aureus strains (Newman, USA300, CA-409, CA-127, NY-315); assay: Rapid SYBR Green/PI antibiotic susceptibility test; assay type: cell-based, Staphylococcus aureus; details: for cut-off (averaged proportion of killed cells) for resistant strains / cut-off (averaged proportion of killed cells) for susceptible strains: 100 μg/mL, 1.5 hours; for percent killed, resistant strain NY-315: kanamycin 25, erythromycin 400 μg/mL; for percent killed, sensitive Newman strain: kanamycin 25, erythromycin 400, ciprofloxacin 50, gentamicin 400 μg/mL; for percent killed, resistant strain CA-409: kanamycin 25, ciprofloxacin 50, gentamicin 400 μg/mL
[6] = 50 μM, 7-day old stationary phase cells treated for 7 days
[7] = 50 μM, 7 days, stationary phase

## O=C1CN(/N=C/c2ccc([N+](=O)[O-])o2)C(=O)N1 [Nft, nitrofurantoin]
[1]
  Live cell %, round body form: 33%
[2]; 7 days
  Live cell %, ten day old stationary phase culture (in brackets): 82%

## CC1COc2c(N3CCN(C)CC3)c(F)cc3c(=O)c(C(=O)O)cn1c23 (stereo not drawn) [Ofl, ofloxacin]
[2]
  viability at 10 µg/mL: 81%

## CC1(C)S[C@@H]2[C@H](NC(=O)Cc3ccccc3)C(=O)N2[C@H]1C(=O)O [Penicillin G]
[1]; round body form, 50 μM
  Ratios of green/red fluorescence, Primary screening: 6.33
  Ratios of green/red fluorescence, Rescreening (first column): 6.51
  Ratios of green/red fluorescence, Rescreening (second column): 6.33
  Residual viable cells (SYBR Green I/PI assay): 38%
[3]; [6]
  Residual viable cells (epifluorescence microscope counting): 75%
[4]; [6]
  Residual viable cells (regression equation, SYBR Green I/PI assay): 68%
[4]; [7]
  Ratio of Green/Red fluorescence, Primary screening: 7.41
  Ratio of Green/Red fluorescence, Rescreening (first column): 7.68
  Ratio of Green/Red fluorescence, Rescreening (second column): 7.92

## CO[C@H]1/C=C/O[C@@]2(C)Oc3c(C)c(O)c4c(O)c(c(/C=N/N5CCN(C)CC5)c(O)c4c3C2=O)NC(=O)/C(C)=C\C=C\[C@H](C)[C@H](O)[C@@H](C)[C@@H](O)[C@@H](C)[C@H](OC(C)=O)[C@@H]1C [Rif, rifampin]
[2]
  viability at 10 µg/mL: 82%

## Nc1ccc(S(=O)(=O)Nc2ccc(Cl)nn2)cc1 [Scp, sulfachlorpyridazine]
[1]
  Live cell %, round body form: 38%
[2]; 7 days
  Live cell %, ten day old stationary phase culture (in brackets): 68%
[2]; drug combination test, refers to Table 6
  residual viable / live cells, stated in text for stationary phase B. burgdorferi: about 38%

## CN(C)[C@@H]1C(O)=C(C(N)=O)C(=O)[C@@]2(O)C(O)=C3C(=O)c4c(O)cccc4[C@@](C)(O)[C@H]3C[C@@H]12 [Tetracycline]
[3]; Borreliella burgdorferi, 168 h, read-out: Residual viable cells (epifluorescence microscope counting)
  viability at 50 µM: 54%
[4]; Borreliella burgdorferi, 168 h, read-out: Residual viable cells (regression equation, SYBR Green I/PI assay)
  viability at 50 µM: 50%

## CC[C@H]1OC(=O)[C@H](C)[C@@H](O[C@H]2C[C@@](C)(OC)[C@@H](O)[C@H](C)O2)[C@H](C)[C@@H](O[C@@H]2O[C@H](C)C[C@H](N(C)C)[C@H]2O)[C@](C)(O)C[C@@H](C)C(=O)[C@H](C)[C@@H](O)[C@]1(C)O [erythromycin]
[5]
  cut-off (averaged proportion of killed cells) for resistant strains: −0.1
  cut-off (averaged proportion of killed cells) for susceptible strains: −0.4
[5]; 30 minutes
  percent killed, resistant strain NY-315: 17%
  percent killed, sensitive Newman strain: 50%

## NC[C@H]1O[C@H](O[C@H]2[C@H](O)[C@@H](O[C@H]3O[C@H](CO)[C@@H](O)[C@H](N)[C@H]3O)[C@H](N)C[C@@H]2N)[C@H](O)[C@@H](O)[C@@H]1O [kanamycin]
[5]
  cut-off (averaged proportion of killed cells) for resistant strains: −0.01
  cut-off (averaged proportion of killed cells) for susceptible strains: −0.2
[5]; 30 minutes, kanamycin 25, ciprofloxacin 50 μg/mL
  percent killed, resistant strain CA-127: 5%
[5]; 30 minutes
  percent killed, resistant strain CA-409: 5%
  percent killed, resistant strain NY-315: 5%
  percent killed, sensitive Newman strain: 27%

## gentamicin
[5]
  cut-off (averaged proportion of killed cells) for resistant strains: −0.2
  cut-off (averaged proportion of killed cells) for susceptible strains: −0.3
[5]; 30 minutes
  percent killed, resistant strain CA-409: 10%
  percent killed, sensitive Newman strain: 27%

## polymyxin B [Pmb]
[2]; ten-day-old stationary phase culture enriched with micro-colonies, 10 μg/mL each drug, 7 days
  Live Cell % (residual viable B. burgdorferi): 77% ^c
